Source: patent publication US20250136606A1, “MODULATORS OF TRPML, THEIR COMPOSITIONS AND METHODS OF USE” (Caraway Therapeutics, Inc., priority 2021, published 2025)
Read-outs that look alike come from different tables or passages of the source.

How the values were obtained:
Format in all cases: cell-based
TRPML2 = target: T1, TRPML2 (Homo sapiens, UniProt Q8IZK6); experiment: Fluorescent TRPML2 assay (performed as for TRPML1, substituting the TRPML2 subtype)
T1 construct: expressed in transfected cells
T1 sequence (Q8IZK6 1-566): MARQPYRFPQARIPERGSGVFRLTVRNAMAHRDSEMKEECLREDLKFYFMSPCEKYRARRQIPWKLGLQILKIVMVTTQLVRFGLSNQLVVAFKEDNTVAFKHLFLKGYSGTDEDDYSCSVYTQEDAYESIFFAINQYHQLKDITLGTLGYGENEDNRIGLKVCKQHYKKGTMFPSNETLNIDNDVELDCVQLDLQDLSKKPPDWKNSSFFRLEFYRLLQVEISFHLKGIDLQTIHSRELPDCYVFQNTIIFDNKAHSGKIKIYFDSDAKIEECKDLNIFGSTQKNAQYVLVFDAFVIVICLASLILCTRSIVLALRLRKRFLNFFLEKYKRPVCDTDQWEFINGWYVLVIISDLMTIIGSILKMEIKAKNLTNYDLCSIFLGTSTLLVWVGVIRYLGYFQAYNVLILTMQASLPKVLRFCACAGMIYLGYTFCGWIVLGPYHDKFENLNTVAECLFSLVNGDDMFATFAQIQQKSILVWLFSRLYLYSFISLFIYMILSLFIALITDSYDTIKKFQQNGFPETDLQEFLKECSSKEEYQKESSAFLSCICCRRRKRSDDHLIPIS
Procedure, shortened: (§1)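 HEK-293 Trex, dox-induced (0.5 ug/mL), mutated for surface expression. Fluo4-AM 1 micromolar load ~60 min, dark; buffer modified Ringer's, 10 mM Ca. Cpds 20 micromolar–6 nanomolar final, half-log, n=3. Read ex 480/em 540; % activity vs controls; EC50 nonlinear fit.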

TRPML1 = TRPML1 (Homo sapiens, UniProt Q9GZU1); experiment: Fluorescent TRPML1 assay (Fluo4-AM calcium fluorescence in doxycycline-induced HEK-293 Trex cells)
TRPML1, sequence (Q9GZU1 whole entry L15A/L16A/L577A/L578A, form open): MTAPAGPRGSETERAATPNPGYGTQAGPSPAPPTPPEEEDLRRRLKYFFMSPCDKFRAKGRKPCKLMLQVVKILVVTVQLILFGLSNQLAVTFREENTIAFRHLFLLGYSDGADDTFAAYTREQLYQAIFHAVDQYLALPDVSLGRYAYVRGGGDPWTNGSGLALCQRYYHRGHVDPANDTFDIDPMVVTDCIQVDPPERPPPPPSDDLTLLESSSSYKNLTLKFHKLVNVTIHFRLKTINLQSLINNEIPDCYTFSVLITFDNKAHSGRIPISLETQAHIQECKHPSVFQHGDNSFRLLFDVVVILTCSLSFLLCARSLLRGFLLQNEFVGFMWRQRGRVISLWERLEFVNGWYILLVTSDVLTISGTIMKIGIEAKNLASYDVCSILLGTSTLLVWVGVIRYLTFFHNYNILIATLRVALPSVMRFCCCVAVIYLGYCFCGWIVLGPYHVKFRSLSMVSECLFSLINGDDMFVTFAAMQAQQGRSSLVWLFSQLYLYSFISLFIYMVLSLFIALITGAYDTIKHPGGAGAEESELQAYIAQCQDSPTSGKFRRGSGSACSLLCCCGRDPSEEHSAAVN
Procedure, shortened: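 HEK-293 Trex cells stably expressing surface-directed mutant human TRPML1, induced with 0.5 µg/mL doxycycline overnight, were loaded with 1 µM Fluo4-AM and added to compound (6 nM–20 µM final, half-log steps, triplicate) in Ringer's with 10 mM calcium. Fluorescence ex 480/em 540; EC50 by non-linear regression versus plate controls.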

TRPML3 = target: T2, TRPML3 (Homo sapiens, UniProt Q8TDD5); experiment: Fluorescent TRPML3 assay (performed as for TRPML1, substituting the TRPML3 subtype)
T2 construct: expressed in transfected cells
T2 sequence (Q8TDD5 1-553): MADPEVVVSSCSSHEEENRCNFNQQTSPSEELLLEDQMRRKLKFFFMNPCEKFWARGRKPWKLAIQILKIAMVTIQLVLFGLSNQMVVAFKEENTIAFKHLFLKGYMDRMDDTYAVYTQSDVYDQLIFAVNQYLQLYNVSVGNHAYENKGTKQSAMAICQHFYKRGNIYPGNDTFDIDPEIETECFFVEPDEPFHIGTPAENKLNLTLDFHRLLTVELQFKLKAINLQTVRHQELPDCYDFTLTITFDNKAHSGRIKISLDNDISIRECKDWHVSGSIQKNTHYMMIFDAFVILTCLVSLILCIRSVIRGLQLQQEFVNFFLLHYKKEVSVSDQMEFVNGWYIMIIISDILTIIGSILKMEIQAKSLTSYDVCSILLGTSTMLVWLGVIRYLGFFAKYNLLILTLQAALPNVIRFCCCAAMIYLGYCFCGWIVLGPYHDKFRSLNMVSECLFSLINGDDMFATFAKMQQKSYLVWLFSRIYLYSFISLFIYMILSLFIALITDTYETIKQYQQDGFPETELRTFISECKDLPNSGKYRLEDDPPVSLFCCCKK
Procedure, shortened: as §1

EC50 (TRPML2; fluorescent calcium assay) | EC50 (TRPML1; fluorescent calcium assay) | EC50 (TRPML3; fluorescent calcium assay) | EC50 (TRPML2) | EC50 (TRPML1) | EC50 (TRPML3) | Structure (SMILES)
500 to 2000 nM | 100 to 500 nM | 100 to 500 nM |  |  |  | CC(C)(C)OC(=O)N1CCN(c2ncnc3c2c(C2CC2)cn3-c2cc(F)c(F)c(F)c2)CC1 [Compound 234, tert-butyl 4-(5-cyclopropyl-7-(3,4,5-trifluorophenyl)-7H-pyrrolo[2,3-d]pyrimidin-4-yl)piperazine-1-carboxylate]
 |  |  | < 100 nM | < 100 nM | < 100 nM | CCCOc1cn(-c2cc(C#N)ccn2)c2ncnc(N3C[C@@H](C)N(C(=O)OC(C)(C)C)C[C@@H]3C)c12 [Compound 507, tert-butyl (2R,5S)-4-(7-(4-cyanopyridin-2-yl)-5-propoxy-7H-pyrrolo[2,3-d]pyrimidin-4-yl)-2,5-dimethylpiperazine-1-carboxylate]
 |  |  | < 100 nM | < 100 nM | < 100 nM | C[C@@H]1CN(c2ncnc3c2c(-c2ccccc2F)cn3-c2cc(F)ccn2)[C@@H](C)CN1C(=O)OC1(C)CC1 [Compound 653, 1-methylcyclopropyl (2R,5S)-4-(5-(2-fluorophenyl)-7-(4-fluoropyridin-2-yl)-7H-pyrrolo[2,3-d]pyrimidin-4-yl)-2,5-dimethylpiperazine-1-carboxylate]
100 to 500 nM | < 100 nM | < 100 nM |  |  |  | C[C@@H]1CN(c2ncnc3c2c(-c2ccccc2F)cn3-c2cc(F)ccn2)[C@@H](C)CN1C(=O)OC(C)(C)C [Compound 452, tert-butyl (2R,5S)-4-(5-(2-fluorophenyl)-7-(4-fluoropyridin-2-yl)-7H-pyrrolo[2,3-d]pyrimidin-4-yl)-2,5-dimethylpiperazine-1-carboxylate]
> 2000 nM | 100 to 500 nM | 500 to 2000 nM |  |  |  | CCOC(=O)N1C[C@H](C)N(c2ncnc3c2c(-c2cccnc2)cn3-c2cccc(Cl)c2)C[C@H]1C [Compound 133, Ethyl (2R,5S)-4-(7-(3-chlorophenyl)-5-(pyridin-3-yl)-7H-pyrrolo[2,3-d]pyrimidin-4-yl)-2,5-dimethylpiperazine-1-carboxylate]
> 2000 nM | 500 to 2000 nM | 500 to 2000 nM |  |  |  | Cc1cncc(-n2cc(C3CC3)c3c(N4CCN(C(=O)OC(C)(C)C)[C@H](C)C4)ncnc32)c1 (single isomer, unassigned) [Compound 175]
500 to 2000 nM | 100 to 500 nM | < 100 nM |  |  |  | C[C@H]1CN(C(=O)OC(C)(C)C)CCN1c1ncnc2c1c(-c1cncnc1)cn2-c1cccc(Cl)c1 [Compound 327, tert-butyl (S)-4-(7-(3-chlorophenyl)-5-(pyrimidin-5-yl)-7H-pyrrolo[2,3-d]pyrimidin-4-yl)-3-methylpiperazine-1-carboxylate]
500 to 2000 nM | 100 to 500 nM | 100 to 500 nM |  |  |  | Cc1cncc(-n2cc(C3CC3)c3c(N4CCN(C(=O)OC(C)(C)C)[C@@H](C)C4)ncnc32)c1 (single isomer, unassigned) [Compound 174]
 |  |  | 500 to 2000 nM | 100 to 500 nM | 100 to 500 nM | C[C@@H]1CN(c2ncnc3c2c(C(F)(F)F)cn3[C@@H]2CCCC(F)(F)C2)[C@@H](C)CN1C(=O)OC(C)(C)C (single isomer, unassigned) [Compound 714]
500 to 2000 nM | 100 to 500 nM | < 100 nM |  |  |  | Cc1c(F)cc(-n2cc(N3CCCC3)c3c(N4CCN(C(=O)OC(C)(C)C)C[C@@H]4C)ncnc32)cc1F [Compound 374, tert-butyl (S)-4-(7-(3,5-difluoro-4-methylphenyl)-5-(pyrrolidin-1-yl)-7H-pyrrolo[2,3-d]pyrimidin-4-yl)-3-methylpiperazine-1-carboxylate]
 |  |  | > 2000 nM | < 100 nM | 100 to 500 nM | C[C@@H]1CN(c2ncnc3c2c(C(F)(F)F)cn3-c2cc(C#N)ccn2)[C@H](C)CN1C(=O)OC(C)(C)C [Compound 503, tert-butyl (2R,5R)-4-(7-(4-cyanopyridin-2-yl)-5-(trifluoromethyl)-7H-pyrrolo[2,3-d]pyrimidin-4-yl)-2,5-dimethylpiperazine-1-carboxylate]
 |  |  | 100 to 500 nM | < 100 nM | < 100 nM | C[C@@H]1CN(c2nccc3c2c(C(F)(F)F)cn3-c2cc(C#N)ccn2)[C@@H](C)CN1C(=O)OC(C)(C)C [Compound 620, tert-butyl (2R,5S)-4-(1-(4-cyanopyridin-2-yl)-3-(trifluoromethyl)-1H-pyrrolo[3,2-c]pyridin-4-yl)-2,5-dimethylpiperazine-1-carboxylate]
100 to 500 nM | < 100 nM | < 100 nM |  |  |  | CC1CN(C(=O)OC(C)(C)C)CCN1c1ncnc2c1c(C1CC1)cn2-c1cncc(Cl)c1 (stereo not drawn) [Compound 164, tert-butyl 4-(7-(5-chloropyridin-3-yl)-5-cyclopropyl-7H-pyrrolo[2,3-d]pyrimidin-4-yl)-3-methylpiperazine-1-carboxylate]
 |  |  | 100 to 500 nM | < 100 nM | < 100 nM | C[C@H]1CN(C(=O)OC(C)(C)C)CCN1c1ncnc2c1c(C(F)(F)F)cn2-c1cccc(Cl)c1 [Compound 494, tert-butyl (S)-4-(7-(3-chlorophenyl)-5-(trifluoromethyl)-7H-pyrrolo[2,3-d]pyrimidin-4-yl)-3-methylpiperazine-1-carboxylate]
< 100 nM | < 100 nM | < 100 nM |  |  |  | CCc1cn(-c2cc(C#N)ccn2)c2ncnc(N3C[C@@H](C)N(C(=O)OC(C)(C)C)C[C@@H]3C)c12 [Compound 479, tert-butyl (2R,5S)-4-(7-(4-cyanopyridin-2-yl)-5-ethyl-7H-pyrrolo[2,3-d]pyrimidin-4-yl)-2,5-dimethylpiperazine-1-carboxylate]
100 to 500 nM | < 100 nM | < 100 nM |  |  |  | CCN(CCOC)c1cn(-c2cc(C#N)ccn2)c2ncnc(N3CCN(C(=O)OC(C)(C)C)C[C@@H]3C)c12 [Compound 486, tert-butyl (S)-4-(7-(4-cyanopyridin-2-yl)-5-(ethyl(2-methoxyethyl)amino)-7H-pyrrolo[2,3-d]pyrimidin-4-yl)-3-methylpiperazine-1-carboxylate]
< 100 nM | < 100 nM | < 100 nM |  |  |  | C[C@H]1CN(C(=O)OC(C)(C)C)CCN1c1ncnc2c1c(-c1cccnc1)cn2-c1cc(C#N)ccn1 [Compound 353, tert-butyl (S)-4-(7-(4-cyanopyridin-2-yl)-5-(pyridin-3-yl)-7H-pyrrolo[2,3-d]pyrimidin-4-yl)-3-methylpiperazine-1-carboxylate]
500 to 2000 nM | 100 to 500 nM | 100 to 500 nM |  |  |  | COc1cccc(-n2cc(-c3cccnc3)c3c(N4CCN(C(=O)OC(C)(C)C)C[C@@H]4C)ncnc32)c1 [Compound 272, tert-butyl-(S)-4-(7-(3-methoxyphenyl)-5-(pyridin-3-yl)-7H-pyrrolo[2,3-d]pyrimidin-4-yl)-3-methylpiperazine-1-carboxylate]
< 100 nM | < 100 nM | < 100 nM |  |  |  | C[C@H]1CN(C(=O)OC(C)(C)C)CCN1c1ncnc2c1c(C1CCCC1)cn2-c1cccc(Cl)c1 [Compound 158, tert-Butyl (S)-4-(7-(3-chlorophenyl)-5-cyclopentyl-7H-pyrrolo[2,3-d]pyrimidin-4-yl)-3-methylpiperazine-1-carboxylate]
500 to 2000 nM | < 100 nM | < 100 nM |  |  |  | CC[C@@H]1CN(c2ncnc3c2c(C2CC2)cn3-c2cc(F)cc(F)c2)CCN1C(=O)OC(C)(C)C [Compound 256, tert-butyl (R)-4-(5-cyclopropyl-7-(3,5-difluorophenyl)-7H-pyrrolo[2,3-d]pyrimidin-4-yl)-2-ethylpiperazine-1-carboxylate]
100 to 500 nM | < 100 nM | < 100 nM |  |  |  | C[C@@H]1CN(c2ncnc3c2c(C2CC2)cn3-c2cccc(Cl)c2)[C@@H](C)CN1C(=O)OC(C)(C)C [Compound 130, tert-butyl (2R,5S)-4-(7-(3-chlorophenyl)-5-cyclopropyl-7H-pyrrolo[2,3-d]pyrimidin-4-yl)-2,5-dimethylpiperazine-1-carboxylate]
